We go through 1 molecule from article PMC6222871, “Suppression of Hepatitis C Virus Genome Replication and Particle Production by a Novel Diacylglycerol Acyltransferases Inhibitor” (Molecules : A Journal of Synthetic Chemistry and Natural …, 2018).

One data set concerns recombinant DGAT-2. The arrangement: method as in PMID 23242135. To be noted: cited from earlier work.
In a further data set the test system is recombinant DGAT-1. The arrangement: method as in PMID 23242135. To be noted: recombinant DGAT-1, [14C] oleoyl-CoA as acyl-donor; cited from earlier work.
The next data set relates to HepG2 cells. The arrangement: method as in PMID 23242135. The conditions noted are these: [14C] glycerol as substrate; cited from earlier work.
Data set [1] deals with HCV genotype 2a (Huh7.5-J6/JFH1). The data set can be described thus: microbe, parasite or virus in culture. To be noted: for EC50: Hepatitis C virus. The text has this: We previously synthesized and characterized twelve DGAT inhibitors with a different DGAT specificity. […] A922500, a commercially available DGAT-1-specific inhibitor was used as a positive control. In spite of a wealth of knowledge on an essential role of DGAT-1 in the HCV particle assembly and production, less attention has been paid to potential functions of DGATs in other steps of the viral life cycle. Therefore, we decided to examine effects of these twelve DGAT inhibitors on HCV particle production as well as RNA genome replication in parallel. For this purpose, we transfected Huh7.5 cells with in vitro-transcribed genotype 2a HCV RNAs (Huh7.5-J6/JFH1) and treated them with each DGAT inhibitor for 6 and 72 h at 10 μM. HCV genome replication as well as host GAPDH RNA levels was quantitated by a real-time RT-PCR analysis. For assessment of HCV particle production, we harvested and filtered the supernatant from Huh7.5-J6/JFH1 cells treated with DGAT inhibitors and incubated the supernatant with naïve huh7.5 cells for 72 h. Then, infectivity was measured by a real-time RT-PCR analysis.
Quantitative real-time RT-PCR analysis to measure levels of HCV RNA and GAPDH was conducted as previously described. The cDNA synthesis and reverse transcription of miR-122 were performed by using Taqman quantitative RT-PCR (qRT-PCR) analysis. Taqmanq RT-PCR components including TaqMan miR122 probe, endogenous control U6 probe, TaqMan® MicroRNA reverse transcription Kit and TaqMan® universal master mix II were purchased from Thermo Fisher Scientific (Waltham, MA, USA)
Huh7.5-J6/JFH-1 cells were seeded into 6-well plates at a density of 3 × 10^5 cells per well with DMEM containing 10% FBS. After 24 h, they are incubated with either DMSO, increasing concentrations of 10j for 3, 6, 12, 24, 48, and 72 h, or increasing concentrations of A922500 for 6, 12, 24, 48, and 72 h. Total RNAs were extracted from treated cells and virus-containing media were harvested at each time point. Naïve Huh7.5 cells were infected with these virus-containing media after concentration with centricons. Total RNAs were extracted from Huh7.5 cells infected with virus-containing media. qRT-PCR analysis was performed to measure effect of 10j on HCV replication and virus particle production.

Another data set relates to miR122. In words: miR122 RT-PCR in Huh7.5-J6/JFH1 cells. It counts as cell-based. To be noted: up to 8 μM, 72 h. The text has this: Since DGATs play an important role in maintaining liver-likeness in hepatocytes, the antiviral effect of 10j might be due to mere loss of this liver-specific character. […] In addition, HNF4α was also reported to be reduced in DGAT1-silenced cell lines. Therefore, we wished to test effects of 10j on HNF4α.

Another data set has as its system Huh7.5 cells. The data set can be described thus: TG quantification assay in Huh7.5 cells. The format is cell-based. The conditions noted are these: 8 μM, 72 h. The procedure:
Cells were washed with cold PBS, suspended, and homogenized in 1 mL of 5% NP-40/ddH2O solution. Then, homogenized cells were slowly heated to 90 °C for 5 min or until the NP-40 becomes cloudy, then cooled down to room temperature. Previous step was repeated to solubilize all TG. Cells were centrifuged for 2 min at top speed using a microcentrifuge to remove any insoluble material. Samples were diluted 10-fold with ddH2O before proceeding with the assay. […] Samples were added with 50 μL of reaction mix into each well and incubated at room temperature for 60 min while protected from light. Fluorescence was measured by using a fluorometric reader with Ex/Em = 535/590 nm. The amount of TG from standard sample was calculated using the following equation: Ts=Corrected absorbance−(y−intercept)/slope The amount of intracellular TG was calculated using the following equation: Concentration=Ts/Sv*D where the Ts is the amount of TG from standard curve and Sv is the volume of sample added to sample wells and D is the sample dilution factor.

The subject of data set [2] is HCV genotype 2a (Huh7.5-J6/JFH1). The data set can be described thus: HCV particle production: infectivity of supernatant on naive Huh7.5 cells by real-time RT-PCR. The format is cell-based, hepatitis C virus. The conditions noted are these: for effect on HCV particle production: 10 μM; for EC50: Hepatitis C virus, read-out: EC50 on HCV particle production. A general note: Quantitative PCR measures a nucleic acid by following its amplification.
Description: A922500, a commercially available DGAT-1-specific inhibitor was used as a positive control [10]. […] Therefore, we decided to examine effects of these twelve DGAT inhibitors on HCV particle production as well as RNA genome replication in parallel. For this purpose, we transfected Huh7.5 cells with in vitro-transcribed genotype 2a HCV RNAs (Huh7.5-J6/JFH1) [16] and treated them with each DGAT inhibitor for 6 and 72 h at 10 μM. HCV genome replication as well as host GAPDH RNA levels was quantitated by a real-time RT-PCR analysis. For assessment of HCV particle production, we harvested and filtered the supernatant from Huh7.5-J6/JFH1 cells treated with DGAT inhibitors and incubated the supernatant with naïve huh7.5 cells for 72 h. Then, infectivity was measured by a real-time RT-PCR analysis.
Huh7.5-J6/JFH-1 cells were seeded into 6-well plates at a density of 3 × 10^5 cells per well with DMEM containing 10% FBS. […] Total RNAs were extracted from treated cells and virus-containing media were harvested at each time point. Naïve Huh7.5 cells were infected with these virus-containing media after concentration with centricons.

A value given as a limit tells only on which side of the number the result lay.

Regarding `O=C(NCc1ccco1)c1ccc2[nH]c(COc3ccc(C45CC6CC(CC(C6)C4)C5)cc3)nc2c1` [10j, 2-{[4-(adamant-1yl)phenoxy]methyl)-N-(furan-2-ylmethyl)-1H-benzo[d]imidazole-5-carboxamide], the results for the IC50 in the data set with recombinant DGAT-2 and in the data set with recombinant DGAT-1 were 17300 nM and 9000 nM, respectively. The “TG % (10 μM in HepG2), relative [14C] triglyceride percentage” value with HepG2 cells is given as 45.0%. The “T1/2, time required for reducing the viral RNAs by half” value in data set [1] (8 μM, genotype 2a) amounted to 35.8 h. In addition, the “effect on HCV genome replication” value in data set [1] (10 μM, 72 h (Figure 1C)) was “able to block both viral RNA genome replication and particle production”. Also, the EC50 (usually the concentration giving half of the maximal effect) is above 10000 nM in data set [1] (3 h, read-out: EC50 on HCV genome replication); above 10000 nM in data set [1] (6 h, read-out: EC50 on HCV genome replication); 8500 nM in data set [1] (12 h, read-out: EC50 on HCV genome replication); 3000 nM in data set [1] (24 h, read-out: EC50 on HCV genome replication); 3600 nM in data set [1] (48 h, read-out: EC50 on HCV genome replication); 2700 nM in data set [1] (72 h, read-out: EC50 on HCV genome replication). The EC50 is 1600 nM in data set [1] (GETYPE2A, 72 h, read-out: EC50 HCV RNA, reporter-free infectious clone); 1000 to 2000 nM in data set [1] (GETYPE2A, read-out: EC50 values required for inhibition of the HCV genome replication (summary)); 1000 nM in data set [2] (Huh7.5, 3 h); 1700 nM in data set [2] (Huh7.5, 6 h); 400 nM in data set [2] (Huh7.5, 12 h); 400 nM in data set [2] (Huh7.5, 24 h). The EC50 in data set [2] (Huh7.5, 48 h) was 700 nM; in data set [2] (Huh7.5, 72 h), 200 nM. The “expression levels of miR122” value in the data set on miR122 is on record as “increased levels of miR122”. Further, the “reduction of endogenous level of TG” value in the data set on Huh7.5 cells was 83%. Also, the “effect on HCV particle production” value is “able to block HCV particle production” in data set [2] (6 h (Figure 1B)); “able to block both viral RNA genome replication and particle production” in data set [2] (72 h (Figure 1D)).
